The results in this text go back to ChEMBL document CHEMBL4680157, “Design, synthesis and biological evaluation of novel TRβ selective agonists sustained by ADME-toxicity analysis” (Eur J Med Chem, 2020).

Series [1] is described as follows: Cytotoxicity against human HEK293 cells assessed as cell growth inhibition at 10 uM after 24 hrs relative to control. Type of series: cell-based.
The nature of series [2]: Cytotoxicity against human MCF7 cells assessed as cell growth inhibition at 10 uM after 48 hrs relative to control. In kind it is cell-based.
A short description of series [3]: Cytotoxicity against human HEK293 cells assessed as cell growth inhibition at 10 uM after 48 hrs relative to control. In kind it is cell-based.
The target of a further series is CYP2D6 (Homo sapiens, UniProt P10635). As to the kind of experiment: Inhibition of CYP2D6 (unknown origin) at 10 uM relative to control. Type of series: ADME.
CYP2D6, sequence (P10635 whole entry): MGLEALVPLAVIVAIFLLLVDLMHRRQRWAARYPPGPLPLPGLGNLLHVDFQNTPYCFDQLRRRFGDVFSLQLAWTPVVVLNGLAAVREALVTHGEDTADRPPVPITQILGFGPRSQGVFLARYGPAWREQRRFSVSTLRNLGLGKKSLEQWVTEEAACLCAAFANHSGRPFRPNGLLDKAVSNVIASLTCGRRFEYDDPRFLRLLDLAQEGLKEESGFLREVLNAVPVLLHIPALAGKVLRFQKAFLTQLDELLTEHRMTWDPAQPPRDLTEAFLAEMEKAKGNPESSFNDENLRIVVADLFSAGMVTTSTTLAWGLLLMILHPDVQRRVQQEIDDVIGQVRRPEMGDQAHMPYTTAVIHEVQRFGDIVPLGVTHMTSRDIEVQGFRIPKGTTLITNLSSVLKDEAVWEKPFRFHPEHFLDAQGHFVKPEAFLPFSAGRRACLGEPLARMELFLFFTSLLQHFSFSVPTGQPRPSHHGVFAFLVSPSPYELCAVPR
In another series the target is HDAC4 (Homo sapiens, UniProt P56524). In words: Inhibition of HDAC4 (unknown origin) at 10 uM relative to control.
HDAC4, sequence (P56524 whole entry): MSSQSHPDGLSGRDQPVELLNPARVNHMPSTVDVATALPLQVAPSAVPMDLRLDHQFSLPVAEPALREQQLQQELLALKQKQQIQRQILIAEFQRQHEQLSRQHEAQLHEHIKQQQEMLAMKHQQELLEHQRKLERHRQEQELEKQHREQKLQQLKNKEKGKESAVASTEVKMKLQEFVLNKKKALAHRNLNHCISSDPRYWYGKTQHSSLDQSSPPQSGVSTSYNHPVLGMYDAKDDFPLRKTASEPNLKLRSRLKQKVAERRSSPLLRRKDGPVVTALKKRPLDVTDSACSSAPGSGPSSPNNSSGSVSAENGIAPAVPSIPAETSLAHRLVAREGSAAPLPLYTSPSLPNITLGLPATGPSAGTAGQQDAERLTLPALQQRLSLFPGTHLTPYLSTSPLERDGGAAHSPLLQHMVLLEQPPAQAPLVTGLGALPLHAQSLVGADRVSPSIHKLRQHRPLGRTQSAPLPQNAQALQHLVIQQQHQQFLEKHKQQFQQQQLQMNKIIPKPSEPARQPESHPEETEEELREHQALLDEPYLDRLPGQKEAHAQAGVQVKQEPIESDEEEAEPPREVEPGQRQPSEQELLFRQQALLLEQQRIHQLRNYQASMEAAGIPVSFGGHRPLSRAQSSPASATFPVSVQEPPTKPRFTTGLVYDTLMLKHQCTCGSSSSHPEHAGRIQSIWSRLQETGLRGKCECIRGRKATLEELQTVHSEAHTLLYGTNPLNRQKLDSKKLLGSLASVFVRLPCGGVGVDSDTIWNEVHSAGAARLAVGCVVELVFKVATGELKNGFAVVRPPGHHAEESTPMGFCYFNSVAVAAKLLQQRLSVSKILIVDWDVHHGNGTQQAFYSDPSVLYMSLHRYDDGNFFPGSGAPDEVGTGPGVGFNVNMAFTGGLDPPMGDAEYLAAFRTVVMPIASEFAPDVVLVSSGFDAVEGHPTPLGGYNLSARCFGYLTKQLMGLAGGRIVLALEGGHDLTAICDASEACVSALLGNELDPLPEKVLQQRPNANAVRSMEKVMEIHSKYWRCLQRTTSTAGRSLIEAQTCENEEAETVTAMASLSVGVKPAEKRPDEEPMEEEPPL
The target of another series is T1, CYP1A2 (Homo sapiens, UniProt P05177).
T1 sequence (P05177 whole entry): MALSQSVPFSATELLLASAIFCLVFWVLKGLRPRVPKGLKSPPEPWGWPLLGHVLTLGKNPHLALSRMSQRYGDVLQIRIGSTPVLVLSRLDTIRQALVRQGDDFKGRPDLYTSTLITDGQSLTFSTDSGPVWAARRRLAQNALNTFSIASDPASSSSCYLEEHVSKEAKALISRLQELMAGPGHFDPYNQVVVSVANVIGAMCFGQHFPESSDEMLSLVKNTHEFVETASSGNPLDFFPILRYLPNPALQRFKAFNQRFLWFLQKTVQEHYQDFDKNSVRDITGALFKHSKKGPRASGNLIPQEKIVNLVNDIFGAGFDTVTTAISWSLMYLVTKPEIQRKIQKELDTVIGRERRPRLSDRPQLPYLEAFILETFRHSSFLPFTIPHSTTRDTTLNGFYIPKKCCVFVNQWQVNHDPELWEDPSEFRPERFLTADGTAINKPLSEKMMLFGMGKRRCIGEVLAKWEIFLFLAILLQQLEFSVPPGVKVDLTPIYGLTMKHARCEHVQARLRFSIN
As to the kind of experiment: Inhibition of CYP1A2 (unknown origin) at 10 uM relative to control. In kind it is ADME.

The nature of series [4]: Cytotoxicity against human MCF7 cells assessed as cell growth inhibition at 10 uM after 24 hrs relative to control. Type of series: cell-based.
The next series deals with CYP2C19 (Homo sapiens, UniProt P33261). In words: Inhibition of CYP2C19 (unknown origin) at 10 uM relative to control. In kind it is ADME.
CYP2C19, sequence (P33261 whole entry): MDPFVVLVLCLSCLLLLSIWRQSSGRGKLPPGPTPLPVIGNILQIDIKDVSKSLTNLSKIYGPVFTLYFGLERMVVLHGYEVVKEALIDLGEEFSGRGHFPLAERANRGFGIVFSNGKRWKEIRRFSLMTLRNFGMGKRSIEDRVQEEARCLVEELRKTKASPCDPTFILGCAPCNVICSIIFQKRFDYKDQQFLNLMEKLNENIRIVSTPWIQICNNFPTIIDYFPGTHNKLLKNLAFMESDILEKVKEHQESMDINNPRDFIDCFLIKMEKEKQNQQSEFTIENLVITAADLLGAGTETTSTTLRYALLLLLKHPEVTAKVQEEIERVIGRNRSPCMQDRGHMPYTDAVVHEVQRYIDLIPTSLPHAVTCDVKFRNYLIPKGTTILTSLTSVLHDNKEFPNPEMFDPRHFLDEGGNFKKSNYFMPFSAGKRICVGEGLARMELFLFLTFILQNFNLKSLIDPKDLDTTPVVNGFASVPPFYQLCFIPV
Another series addresses T2, HDAC6 (Homo sapiens, UniProt Q9UBN7).
T2 sequence (Q9UBN7 whole entry): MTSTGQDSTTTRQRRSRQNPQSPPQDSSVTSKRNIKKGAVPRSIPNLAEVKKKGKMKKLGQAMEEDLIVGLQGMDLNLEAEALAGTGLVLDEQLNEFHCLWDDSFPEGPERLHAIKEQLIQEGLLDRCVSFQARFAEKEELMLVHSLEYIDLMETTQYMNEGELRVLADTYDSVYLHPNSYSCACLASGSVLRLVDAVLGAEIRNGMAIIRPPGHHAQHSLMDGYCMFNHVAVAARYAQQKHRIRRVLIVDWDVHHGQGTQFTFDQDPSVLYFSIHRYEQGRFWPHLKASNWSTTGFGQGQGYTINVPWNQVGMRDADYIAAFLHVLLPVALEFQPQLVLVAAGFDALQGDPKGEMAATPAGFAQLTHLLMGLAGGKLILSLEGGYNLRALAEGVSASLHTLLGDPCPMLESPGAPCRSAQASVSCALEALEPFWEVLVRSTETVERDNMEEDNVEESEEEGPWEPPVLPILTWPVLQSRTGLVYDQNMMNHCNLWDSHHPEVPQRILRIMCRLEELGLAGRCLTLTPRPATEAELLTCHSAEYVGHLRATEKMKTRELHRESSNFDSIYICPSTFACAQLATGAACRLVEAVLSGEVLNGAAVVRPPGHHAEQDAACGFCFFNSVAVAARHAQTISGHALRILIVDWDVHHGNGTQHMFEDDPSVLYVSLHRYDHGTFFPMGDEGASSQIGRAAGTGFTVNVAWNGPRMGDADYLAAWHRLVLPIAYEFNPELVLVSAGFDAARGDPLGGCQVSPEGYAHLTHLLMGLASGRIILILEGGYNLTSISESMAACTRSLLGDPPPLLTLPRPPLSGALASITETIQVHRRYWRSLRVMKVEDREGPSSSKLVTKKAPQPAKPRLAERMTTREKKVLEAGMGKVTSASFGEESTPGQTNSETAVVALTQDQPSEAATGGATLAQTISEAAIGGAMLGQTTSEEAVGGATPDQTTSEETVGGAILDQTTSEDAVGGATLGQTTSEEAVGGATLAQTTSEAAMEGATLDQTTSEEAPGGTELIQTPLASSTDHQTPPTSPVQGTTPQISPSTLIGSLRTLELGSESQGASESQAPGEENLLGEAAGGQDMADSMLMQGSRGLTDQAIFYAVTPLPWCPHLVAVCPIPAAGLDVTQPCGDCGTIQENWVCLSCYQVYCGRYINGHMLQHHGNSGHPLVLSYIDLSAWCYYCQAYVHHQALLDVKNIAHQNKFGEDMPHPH
As to the kind of experiment: Inhibition of HDAC6 (unknown origin) at 10 uM relative to control.

Series [5] in a line: Cytotoxicity against human hTERT cells assessed as cell growth inhibition at 10 uM after 48 hrs relative to control. Type of series: cell-based, hTERT-BJ.
Series [6] has as its target 3',5'-cyclic-AMP phosphodiesterase 4C (Homo sapiens) (UniProt Q08493). As to the kind of experiment: Inhibition of PDE4C1 (unknown origin) at 10 uM relative to control.
Another series addresses HDAC9 (Homo sapiens, UniProt Q9UKV0). In words: Inhibition of HDAC9 (unknown origin) at 10 uM relative to control.
Series [7] can be described thus: Cytotoxicity against human hTERT cells assessed as cell growth inhibition at 10 uM after 24 hrs relative to control. In kind it is cell-based, hTERT-BJ.
The next series addresses T3, SIRT7 (Homo sapiens, UniProt Q9NRC8).
T3 sequence (Q9NRC8 whole entry): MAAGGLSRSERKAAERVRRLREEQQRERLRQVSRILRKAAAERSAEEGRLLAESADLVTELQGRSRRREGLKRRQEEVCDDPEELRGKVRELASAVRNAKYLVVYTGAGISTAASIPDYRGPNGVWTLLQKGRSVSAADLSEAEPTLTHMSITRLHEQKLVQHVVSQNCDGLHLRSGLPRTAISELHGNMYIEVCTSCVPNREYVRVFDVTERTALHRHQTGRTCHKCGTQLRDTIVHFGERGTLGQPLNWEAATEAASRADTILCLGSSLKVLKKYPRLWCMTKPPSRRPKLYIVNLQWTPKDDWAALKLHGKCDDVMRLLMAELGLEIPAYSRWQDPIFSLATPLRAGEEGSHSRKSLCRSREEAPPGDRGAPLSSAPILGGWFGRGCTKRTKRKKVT
In words: Inhibition of SIRT7 (unknown origin) at 10 uM relative to control.

The next series addresses hERG (KCNH2) (Homo sapiens, UniProt Q12809). As to the kind of experiment: Inhibition of human ERG at 10 uM by fluorescence polarization assay relative to control. Background: Polarisation of emitted light reports the rotation of a fluorescent probe.
A further series addresses T4, HDAC8 (Homo sapiens, UniProt Q9BY41).
T4 sequence (Q9BY41 whole entry): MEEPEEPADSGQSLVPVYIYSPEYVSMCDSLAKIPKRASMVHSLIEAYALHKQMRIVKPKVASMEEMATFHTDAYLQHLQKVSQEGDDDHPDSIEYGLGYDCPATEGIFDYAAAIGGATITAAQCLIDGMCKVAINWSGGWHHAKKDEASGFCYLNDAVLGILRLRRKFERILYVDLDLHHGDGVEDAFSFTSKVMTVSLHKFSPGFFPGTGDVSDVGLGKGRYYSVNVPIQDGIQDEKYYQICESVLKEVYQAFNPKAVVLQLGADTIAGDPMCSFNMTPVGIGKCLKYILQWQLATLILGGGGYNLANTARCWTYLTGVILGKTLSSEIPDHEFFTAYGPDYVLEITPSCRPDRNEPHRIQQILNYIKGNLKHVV
As to the kind of experiment: Inhibition of HDAC8 (unknown origin) at 10 uM relative to control.

A further series deals with CYP2C9 (Homo sapiens, UniProt P11712). As to the kind of experiment: Inhibition of CYP2C9 (unknown origin) at 10 uM relative to control. In kind it is ADME.
The nature of series [8]: Cytotoxicity against human U2OS cells assessed as cell growth inhibition at 10 uM after 48 hrs relative to control. In kind it is cell-based.
Another series deals with CYP3A4 (Homo sapiens, UniProt P08684). As to the kind of experiment: Inhibition of CYP3A4 (unknown origin) at 10 uM relative to control. In kind it is ADME.
CYP3A4, sequence (P08684 whole entry): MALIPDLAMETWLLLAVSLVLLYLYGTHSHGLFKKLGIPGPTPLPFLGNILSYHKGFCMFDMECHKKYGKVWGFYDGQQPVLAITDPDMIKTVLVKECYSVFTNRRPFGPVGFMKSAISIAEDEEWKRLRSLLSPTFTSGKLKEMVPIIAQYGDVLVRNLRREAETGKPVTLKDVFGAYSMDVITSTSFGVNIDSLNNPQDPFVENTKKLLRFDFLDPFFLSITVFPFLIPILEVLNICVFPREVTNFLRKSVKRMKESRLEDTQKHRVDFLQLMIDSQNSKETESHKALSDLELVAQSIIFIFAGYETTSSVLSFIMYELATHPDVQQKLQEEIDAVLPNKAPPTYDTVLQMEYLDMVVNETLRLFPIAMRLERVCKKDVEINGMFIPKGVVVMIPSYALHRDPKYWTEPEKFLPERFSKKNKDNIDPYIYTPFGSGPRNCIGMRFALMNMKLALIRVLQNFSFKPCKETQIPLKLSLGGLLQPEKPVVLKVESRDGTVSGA
A short description of series [9]: Cytotoxicity against human U2OS cells assessed as cell growth inhibition at 10 uM after 24 hrs relative to control. In kind it is cell-based.
The next series addresses Aurora B (Homo sapiens, UniProt Q96GD4). In words: Inhibition of Aurora B (unknown origin) at 10 uM relative to control.

Some results are limits rather than exact numbers.

hERG (KCNH2), sequence (Q12809 whole entry): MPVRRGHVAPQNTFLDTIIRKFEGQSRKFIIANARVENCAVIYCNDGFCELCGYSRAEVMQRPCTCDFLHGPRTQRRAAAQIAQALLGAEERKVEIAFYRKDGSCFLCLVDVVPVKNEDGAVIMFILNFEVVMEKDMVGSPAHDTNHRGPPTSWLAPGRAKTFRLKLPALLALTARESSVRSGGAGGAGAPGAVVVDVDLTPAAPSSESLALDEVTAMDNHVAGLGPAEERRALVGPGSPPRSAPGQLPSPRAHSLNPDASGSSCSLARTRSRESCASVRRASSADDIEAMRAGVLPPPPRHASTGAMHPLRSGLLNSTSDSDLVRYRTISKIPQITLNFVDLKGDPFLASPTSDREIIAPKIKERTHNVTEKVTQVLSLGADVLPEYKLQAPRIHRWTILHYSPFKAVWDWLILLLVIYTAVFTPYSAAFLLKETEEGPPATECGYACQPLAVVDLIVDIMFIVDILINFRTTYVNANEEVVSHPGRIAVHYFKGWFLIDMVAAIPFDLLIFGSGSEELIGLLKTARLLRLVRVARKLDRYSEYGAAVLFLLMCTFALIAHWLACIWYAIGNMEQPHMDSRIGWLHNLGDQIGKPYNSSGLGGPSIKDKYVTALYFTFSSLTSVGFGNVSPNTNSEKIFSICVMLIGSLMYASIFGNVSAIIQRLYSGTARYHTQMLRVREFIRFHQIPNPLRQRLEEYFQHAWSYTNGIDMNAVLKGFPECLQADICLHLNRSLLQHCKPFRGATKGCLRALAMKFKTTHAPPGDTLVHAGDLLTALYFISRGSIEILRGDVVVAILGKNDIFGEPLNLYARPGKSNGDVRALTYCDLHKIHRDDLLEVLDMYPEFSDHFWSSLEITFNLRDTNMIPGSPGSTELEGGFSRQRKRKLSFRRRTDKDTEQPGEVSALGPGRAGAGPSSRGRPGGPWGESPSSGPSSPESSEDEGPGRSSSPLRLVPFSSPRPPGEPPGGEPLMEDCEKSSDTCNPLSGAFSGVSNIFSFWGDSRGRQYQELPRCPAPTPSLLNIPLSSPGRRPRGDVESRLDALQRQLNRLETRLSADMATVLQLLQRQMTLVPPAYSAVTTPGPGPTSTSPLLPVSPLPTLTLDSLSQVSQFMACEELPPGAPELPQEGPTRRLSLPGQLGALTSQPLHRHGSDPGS
HDAC9, sequence (Q9UKV0 whole entry): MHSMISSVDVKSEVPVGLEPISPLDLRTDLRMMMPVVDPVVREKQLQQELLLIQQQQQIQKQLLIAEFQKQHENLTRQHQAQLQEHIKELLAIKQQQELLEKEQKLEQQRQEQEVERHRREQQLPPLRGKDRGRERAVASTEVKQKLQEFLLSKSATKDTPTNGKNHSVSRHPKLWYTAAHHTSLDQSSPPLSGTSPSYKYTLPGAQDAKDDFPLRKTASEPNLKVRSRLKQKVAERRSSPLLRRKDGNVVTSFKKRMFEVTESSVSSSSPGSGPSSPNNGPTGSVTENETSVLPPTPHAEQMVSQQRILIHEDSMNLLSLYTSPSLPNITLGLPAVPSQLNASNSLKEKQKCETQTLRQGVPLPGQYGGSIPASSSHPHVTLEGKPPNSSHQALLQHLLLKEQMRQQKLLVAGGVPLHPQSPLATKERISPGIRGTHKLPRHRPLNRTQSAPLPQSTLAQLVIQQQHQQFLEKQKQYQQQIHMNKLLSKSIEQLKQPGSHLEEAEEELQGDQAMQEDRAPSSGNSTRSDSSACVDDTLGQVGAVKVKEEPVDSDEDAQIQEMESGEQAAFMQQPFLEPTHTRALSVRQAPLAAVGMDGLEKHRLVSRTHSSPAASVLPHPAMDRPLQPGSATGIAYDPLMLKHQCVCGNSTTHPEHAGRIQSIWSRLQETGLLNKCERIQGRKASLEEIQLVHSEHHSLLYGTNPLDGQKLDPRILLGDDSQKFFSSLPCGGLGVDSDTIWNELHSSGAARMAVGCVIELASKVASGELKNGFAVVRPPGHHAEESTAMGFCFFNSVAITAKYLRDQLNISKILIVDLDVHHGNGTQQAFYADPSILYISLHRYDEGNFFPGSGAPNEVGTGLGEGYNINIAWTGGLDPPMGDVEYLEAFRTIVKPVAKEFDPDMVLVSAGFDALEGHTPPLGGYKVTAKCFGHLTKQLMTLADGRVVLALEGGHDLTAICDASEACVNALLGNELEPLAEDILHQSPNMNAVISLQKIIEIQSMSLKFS

In general, inhibition refers to the percentage by which the read-out fell short of the control. Turning to `NCCOc1ccc(Cc2ccc(N)cc2)c(C(F)(F)F)c1`, the inhibition at 24 h, 10 µM in series [1], in series [4], in [7] and in [9] was < 50% throughout. Besides, the inhibition at 48 h, 10 µM in series [2], in series [3], in series [5] and in series [8] was < 50% each time. Besides, the inhibition at 10 µM on CYP2D6 was 51%; against HDAC4, < 50%; at CYP1A2 it was > 91%; at CYP2C19, > 91%; against HDAC6, < 50%; against HDAC9 it was < 50%. For the same compound, the inhibition at 10 µM against SIRT7 was < 50%; against hERG (KCNH2), 51%; against HDAC8, < 50%; at CYP2C9 it was > 91%; at CYP3A4, 51%; at Aurora B, < 50%. Further, the inhibition in series [6] was < 50%.

Regarding `Nc1ccc(Cc2ccc(OCC(=O)O)cc2F)cc1`, the inhibition at 24 h, 10 µM in [1], in series [4], in series [7] and in series [9] was < 50% in each case. Moreover, the inhibition at 48 h, 10 µM in series [2], in series [3], in series [5] and in series [8] was < 50% each time. For the same compound, the inhibition at 10 µM against CYP2D6, against HDAC4, on CYP1A2, at CYP2C19, against HDAC6 and against HDAC9 was < 50% each time. Moreover, the inhibition at 10 µM at SIRT7 is < 50%; against hERG (KCNH2), > 91%; at HDAC8, < 50%; against CYP2C9, 51%; against CYP3A4, < 50%; at Aurora B it was < 50%. The inhibition in [6] was < 50%.

`CCNc1ccc(Cc2c(C)cc(OCC(=O)O)cc2C)cc1C(C)C`: the inhibition at 24 h, 10 µM in series [1], in series [4], in series [7] and in [9] was < 50% in each case. Further, the inhibition at 48 h, 10 µM in [2], in [3], in [5] and in series [8] was < 50% each time. Also, the inhibition at 10 µM is 51% against CYP2D6; < 50% against HDAC4; 51% against CYP1A2; > 91% at CYP2C19; < 50% against HDAC6; < 50% at HDAC9. Moreover, the inhibition at 10 µM against SIRT7 was < 50%; against hERG (KCNH2) it was 51%; at HDAC8, < 50%; at CYP2C9, > 91%; at CYP3A4, > 91%; on Aurora B, < 50%. Besides, the inhibition in series [6] was < 50%.

Take `CC(=O)Nc1ccc(Cc2ccc(OCC(=O)O)cc2)cc1C(C)C`: the inhibition at 24 h, 10 µM in [1], in series [4], in [7] and in series [9] was < 50% throughout. The inhibition at 48 h, 10 µM in [2], in [3], in [5] and in [8] was < 50% throughout. In addition, the inhibition at 10 µM against CYP2D6, against HDAC4, on CYP1A2, at CYP2C19, on HDAC6 and against HDAC9 was < 50% throughout. Further, the inhibition at 10 µM was < 50% against SIRT7; < 40% against hERG (KCNH2); < 50% against HDAC8; < 50% at CYP2C9; < 50% against CYP3A4; < 50% against Aurora B. Moreover, the inhibition in series [6] was < 50%.
